Experimental data taken from patent publication US20080009418A1, “Selective Inhibitors” (Alchemia LTD., priority 2004, published 2008).

What was measured:
[1] = biological target: T1, Human neuropeptide Y (NPY-Y1) (Homo sapiens, UniProt P25929); assay: Radioligand binding, human neuropeptide Y NPY-Y1 membranes, FlashPlate, [125I]-PYY; settings: compound at 10 μM, [125I]-PYY
T1 construct: purchased Perkin Elmer Biosignal
T1 sequence (P25929 1-384): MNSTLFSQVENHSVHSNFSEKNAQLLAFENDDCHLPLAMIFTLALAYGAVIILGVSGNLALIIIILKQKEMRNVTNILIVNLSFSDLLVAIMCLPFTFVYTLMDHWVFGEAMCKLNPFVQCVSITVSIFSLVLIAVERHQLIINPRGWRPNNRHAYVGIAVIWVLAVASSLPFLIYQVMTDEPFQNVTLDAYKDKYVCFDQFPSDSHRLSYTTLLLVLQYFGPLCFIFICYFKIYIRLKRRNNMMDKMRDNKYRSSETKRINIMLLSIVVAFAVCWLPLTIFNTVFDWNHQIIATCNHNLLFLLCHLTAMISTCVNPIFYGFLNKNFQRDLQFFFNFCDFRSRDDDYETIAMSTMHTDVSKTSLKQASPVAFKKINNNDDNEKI
Outline: (§1)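 Cloned human receptor membranes were coated onto FlashPlate wells and incubated with radioligand and compound (added from a 0.5 mM DMSO daughter plate) for 1 hour at room temperature in the dark. Scintillation counting gave percent inhibition, with DMSO defining total and reference ligand defining non-specific binding.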

Human opioid (ORL1) = biological target: T2, Human opioid (ORL1) (Homo sapiens, UniProt P41146); assay: Radioligand binding, human opioid ORL1 membranes, FlashPlate, [125I]-Nociceptin; settings: compound at 10 μM, [125I]-Nociceptin
T2 construct: purchased Perkin Elmer Biosignal
Outline: as §1

Human melanocortin (MC5) = biological target: T3, Human melanocortin (MC5) (Homo sapiens, UniProt P33032); assay: Radioligand binding, human melanocortin MC5 membranes, FlashPlate, [125I]-NDP-αMSH; settings: compound at 10 μM, [125I]-NDP-αMSH
T3 construct: purchased Perkin Elmer Biosignal
Outline: as §1

[2] = biological target: T4, Human melanin-concentrating hormone (MCH1) (Homo sapiens, UniProt Q99705); assay: Radioligand binding, human melanin-concentrating hormone MCH1 membranes, FlashPlate, [125I]-S36057; settings: compound at 10 μM
T4 construct: purchased Perkin Elmer Biosignal
Outline: as §1

Human δ-opioid (DOP) = biological target: T5, Human δ-opioid (DOP) (Homo sapiens, UniProt P41143); assay: Radioligand binding, human δ-opioid (DOP) membranes, FlashPlate, [3H]-Bremazocine; settings: compound at 10 μM, [3H]-Bremazocine
T5 construct: purchased Perkin Elmer Biosignal
Outline: as §1

Human Melanocortin (MC3) = biological target: T6, Human Melanocortin (MC3) (Homo sapiens, UniProt P41968); assay: Radioligand binding, human melanocortin MC3 membranes, FlashPlate, [125I]-NDP-αMSH; settings: compound at 10 μM, [125I]-NDP-αMSH
T6 construct: purchased Perkin Elmer Biosignal
Outline: as §1

Mouse urotensin (mUR2) = biological target: T7, Mouse urotensin (mUR2) (Mus musculus, UniProt Q8VIH9); assay: Radioligand binding, mouse urotensin mUR2 membranes, FlashPlate, [125I]-Urotensin II; settings: compound at 10 μM, [125I]-Urotensin II
T7 construct: purchased Perkin Elmer Biosignal
T7 sequence (Q8VIH9 1-385): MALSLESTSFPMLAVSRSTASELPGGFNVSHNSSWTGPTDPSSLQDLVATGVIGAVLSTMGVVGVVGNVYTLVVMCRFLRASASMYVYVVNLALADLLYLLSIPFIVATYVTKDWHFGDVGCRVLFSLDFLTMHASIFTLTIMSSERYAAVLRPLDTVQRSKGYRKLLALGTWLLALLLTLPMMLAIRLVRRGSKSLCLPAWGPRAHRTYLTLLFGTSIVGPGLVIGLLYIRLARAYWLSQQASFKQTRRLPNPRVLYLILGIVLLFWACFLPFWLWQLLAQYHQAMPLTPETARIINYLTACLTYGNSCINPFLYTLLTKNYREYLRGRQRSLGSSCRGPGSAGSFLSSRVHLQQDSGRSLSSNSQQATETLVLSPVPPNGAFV
Outline: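 Cloned mouse urotensin (mUR2) receptor membranes from Perkin Elmer Biosignal were immobilized in FlashPlate microplates using a proprietary coating. Each well got 19.5 μl buffer, then 0.5 μl of DMSO, reference ligand, or compound. Adding 5 μl of [125I]-Urotensin II, diluted to 5× final concentration in binding buffer, started binding. Plates were sealed with TopSeal-A and incubated 1 hour at room temperature in the dark. Wells were counted for 30 seconds each on a TopCount after a 60-second delay, and percentage inhibition was calculated.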

Human κ-Opioid (KOP) = biological target: T8, Human κ-Opioid (KOP) (Homo sapiens, UniProt P41145); assay: Radioligand binding, human κ-opioid (KOP) membranes, filtration, [3H]-Diprenorphine; settings: compound at 10 μM, [3H]-Diprenorphine
T8 construct: purchased Perkin Elmer Biosignal
Outline: (§2)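 Filtration binding on cloned human receptor membranes (1 Unit/well), [125I]-Substance P for NK1 and [3H]-Diprenorphine for KOP, 1 h at room temperature. Filters PEI-presoaked, washed with cold 50 mM Tris-HCl pH 7.4, counted by scintillation; percent inhibition calculated, reference ligand defining non-specific binding.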

Human Melanocortin (MC4) = biological target: T9, Human Melanocortin (MC4) (Homo sapiens, UniProt P32245); assay: Radioligand binding, human melanocortin MC4 membranes, FlashPlate, [125I]-NDP-αMSH; settings: compound at 10 μM, [125I]-NDP-αMSH
T9 construct: purchased Perkin Elmer Biosignal
Outline: as §1

Human μ-opioid (MOP) = biological target: T10, Human μ-opioid (MOP) (Homo sapiens, UniProt P35372); assay: Radioligand binding, human μ-opioid (MOP) membranes, FlashPlate, [3H]-Naloxone; settings: compound at 10 μM, [3H]-Naloxone
T10 construct: purchased Perkin Elmer Biosignal
Outline: as §1

Human neurokinin (NK1) = biological target: T11, Human neurokinin (NK1) (Homo sapiens, UniProt P25103); assay: Radioligand binding, human neurokinin NK1 membranes, filtration, [125I]-Substance P; settings: compound at 10 μM, [125I]-Substance P
T11 construct: purchased Perkin Elmer Biosignal
Outline: as §2

T3 sequence (P33032 whole entry): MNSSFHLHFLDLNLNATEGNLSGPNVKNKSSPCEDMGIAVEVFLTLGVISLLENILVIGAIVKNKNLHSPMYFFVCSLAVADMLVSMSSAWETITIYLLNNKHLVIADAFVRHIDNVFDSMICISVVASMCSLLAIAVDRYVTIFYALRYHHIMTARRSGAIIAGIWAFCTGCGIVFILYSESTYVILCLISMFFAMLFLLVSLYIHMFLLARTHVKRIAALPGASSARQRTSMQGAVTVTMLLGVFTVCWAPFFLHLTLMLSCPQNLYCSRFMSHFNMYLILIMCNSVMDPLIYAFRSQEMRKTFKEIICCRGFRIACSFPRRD
T2 sequence (P41146 whole entry): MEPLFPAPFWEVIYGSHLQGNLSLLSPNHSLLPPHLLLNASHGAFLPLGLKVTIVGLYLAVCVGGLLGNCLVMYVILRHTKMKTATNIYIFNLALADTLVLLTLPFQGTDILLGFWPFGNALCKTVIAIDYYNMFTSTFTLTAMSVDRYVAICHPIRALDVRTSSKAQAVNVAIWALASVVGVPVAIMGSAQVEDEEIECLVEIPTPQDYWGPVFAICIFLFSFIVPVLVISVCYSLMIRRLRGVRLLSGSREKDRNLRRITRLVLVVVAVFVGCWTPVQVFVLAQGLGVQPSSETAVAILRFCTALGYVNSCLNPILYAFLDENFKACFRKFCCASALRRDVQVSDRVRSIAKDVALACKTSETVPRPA
T9 sequence (P32245 whole entry): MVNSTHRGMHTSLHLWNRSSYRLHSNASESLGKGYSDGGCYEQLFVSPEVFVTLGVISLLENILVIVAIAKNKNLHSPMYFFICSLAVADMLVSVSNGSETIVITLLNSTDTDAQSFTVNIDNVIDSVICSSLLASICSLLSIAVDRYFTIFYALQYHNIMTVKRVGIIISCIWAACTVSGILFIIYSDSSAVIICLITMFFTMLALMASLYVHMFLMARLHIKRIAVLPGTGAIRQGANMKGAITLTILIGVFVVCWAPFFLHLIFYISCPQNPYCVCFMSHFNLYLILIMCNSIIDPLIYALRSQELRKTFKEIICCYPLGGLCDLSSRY
T4 sequence (Q99705 whole entry): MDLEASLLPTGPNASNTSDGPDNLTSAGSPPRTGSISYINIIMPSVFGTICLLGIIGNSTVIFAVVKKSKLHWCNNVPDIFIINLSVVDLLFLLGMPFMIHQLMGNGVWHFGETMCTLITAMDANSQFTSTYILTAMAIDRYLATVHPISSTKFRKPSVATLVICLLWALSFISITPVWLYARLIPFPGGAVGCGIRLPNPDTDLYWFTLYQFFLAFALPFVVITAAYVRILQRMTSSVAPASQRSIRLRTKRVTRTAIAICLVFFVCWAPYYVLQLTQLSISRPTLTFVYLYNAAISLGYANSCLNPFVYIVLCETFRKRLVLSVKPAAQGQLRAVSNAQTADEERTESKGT
T10 sequence (P35372 whole entry): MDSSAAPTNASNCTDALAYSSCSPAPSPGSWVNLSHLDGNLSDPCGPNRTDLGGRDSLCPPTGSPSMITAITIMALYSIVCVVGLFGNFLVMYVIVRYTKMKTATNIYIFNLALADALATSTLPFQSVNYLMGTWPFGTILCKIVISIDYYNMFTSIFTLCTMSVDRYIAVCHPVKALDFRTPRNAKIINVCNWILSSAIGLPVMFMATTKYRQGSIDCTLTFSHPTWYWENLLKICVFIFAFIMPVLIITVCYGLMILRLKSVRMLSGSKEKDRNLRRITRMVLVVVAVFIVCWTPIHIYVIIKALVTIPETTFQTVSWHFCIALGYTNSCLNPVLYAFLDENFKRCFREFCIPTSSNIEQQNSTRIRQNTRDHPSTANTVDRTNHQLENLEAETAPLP
T8 sequence (P41145 whole entry): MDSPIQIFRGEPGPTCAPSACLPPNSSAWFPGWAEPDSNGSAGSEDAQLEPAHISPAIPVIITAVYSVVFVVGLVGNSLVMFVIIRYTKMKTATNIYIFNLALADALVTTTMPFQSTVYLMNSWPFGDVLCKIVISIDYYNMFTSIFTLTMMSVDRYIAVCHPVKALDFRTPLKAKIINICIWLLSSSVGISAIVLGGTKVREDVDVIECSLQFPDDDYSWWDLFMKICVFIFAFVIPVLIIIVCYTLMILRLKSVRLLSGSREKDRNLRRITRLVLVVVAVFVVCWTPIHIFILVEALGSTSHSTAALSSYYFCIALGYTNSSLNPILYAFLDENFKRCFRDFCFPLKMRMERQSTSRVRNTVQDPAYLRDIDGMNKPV
T6 sequence (P41968 whole entry): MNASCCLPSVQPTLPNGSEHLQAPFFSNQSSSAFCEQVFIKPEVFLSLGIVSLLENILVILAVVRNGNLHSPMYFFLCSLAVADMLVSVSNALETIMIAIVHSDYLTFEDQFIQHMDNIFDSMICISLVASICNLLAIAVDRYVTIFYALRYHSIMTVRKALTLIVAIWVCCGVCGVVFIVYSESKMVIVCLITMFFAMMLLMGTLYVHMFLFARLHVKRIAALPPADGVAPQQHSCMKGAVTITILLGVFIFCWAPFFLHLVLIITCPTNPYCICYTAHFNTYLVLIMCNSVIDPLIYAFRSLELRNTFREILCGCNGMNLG
T5 sequence (P41143 whole entry): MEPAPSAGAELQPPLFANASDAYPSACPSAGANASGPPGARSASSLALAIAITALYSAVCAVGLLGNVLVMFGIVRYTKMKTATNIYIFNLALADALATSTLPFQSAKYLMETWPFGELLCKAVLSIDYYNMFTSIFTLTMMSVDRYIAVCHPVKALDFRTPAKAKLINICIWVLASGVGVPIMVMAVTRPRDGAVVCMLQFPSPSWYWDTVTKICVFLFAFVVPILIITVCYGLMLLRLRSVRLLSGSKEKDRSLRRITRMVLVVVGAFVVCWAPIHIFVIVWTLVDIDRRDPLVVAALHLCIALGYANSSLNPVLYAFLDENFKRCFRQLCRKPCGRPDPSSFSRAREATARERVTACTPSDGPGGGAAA
T11 sequence (P25103 whole entry): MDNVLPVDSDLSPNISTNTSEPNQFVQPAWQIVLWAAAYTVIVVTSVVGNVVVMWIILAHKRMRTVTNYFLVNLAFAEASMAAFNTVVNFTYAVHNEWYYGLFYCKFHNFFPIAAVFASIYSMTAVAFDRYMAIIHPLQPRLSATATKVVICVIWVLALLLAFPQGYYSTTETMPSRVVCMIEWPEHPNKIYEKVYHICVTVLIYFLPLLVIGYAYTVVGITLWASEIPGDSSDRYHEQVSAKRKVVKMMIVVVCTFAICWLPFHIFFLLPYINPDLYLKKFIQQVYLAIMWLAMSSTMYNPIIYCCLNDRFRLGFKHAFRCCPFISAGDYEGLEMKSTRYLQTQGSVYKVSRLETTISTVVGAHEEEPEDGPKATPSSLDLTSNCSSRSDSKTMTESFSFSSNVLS

COC[C@H]1OC(OCc2cccc(O)c2)[C@H](NC(=O)CCNC(=N)N)[C@@H](OCc2ccc(Cl)cc2)[C@@H]1O (stereo partly drawn) [compound 145]
A9 radioligand binding, percentage inhibition [1]: − (“−” indicates less than 50% inhibition at 10 μM)
A10 radioligand binding, percentage inhibition (Human opioid (ORL1)): − (“−” indicates less than 50% inhibition at 10 μM)
A5 radioligand binding, percentage inhibition (Human melanocortin (MC5)): − (“−” indicates less than 50% inhibition at 10 μM)
A6 radioligand binding, percentage inhibition ([2]; [125I]-S36057): + (“+” indicates greater than 50% inhibition at 10 μM)
A1 radioligand binding, percentage inhibition (Human δ-opioid (DOP)): − (“−” indicates less than 50% inhibition at 10 μM)
A3 radioligand binding, percentage inhibition (Human Melanocortin (MC3)): − (“−” indicates less than 50% inhibition at 10 μM)
A11 radioligand binding, percentage inhibition (Mouse urotensin (mUR2)): − (“−” indicates less than 50% inhibition at 10 μM)
A2 radioligand binding, percentage inhibition (Human κ-Opioid (KOP)): − (“−” indicates less than 50% inhibition at 10 μM)
A4 radioligand binding, percentage inhibition (Human Melanocortin (MC4)): − (“−” indicates less than 50% inhibition at 10 μM)
A7 radioligand binding, percentage inhibition (Human μ-opioid (MOP)): − (“−” indicates less than 50% inhibition at 10 μM)
A8 radioligand binding, percentage inhibition (Human neurokinin (NK1)): − (“−” indicates less than 50% inhibition at 10 μM)

CSC1OC(COCc2cccc(N)c2)C(O)C(OCc2ccc(Cl)cc2)C1NC(=O)C=Cc1ccccc1 (stereo not drawn) [compound 329]
A9: inhibition of radioligand binding, human neuropeptide Y (NPY-Y1) [1]: − (“−” indicates less than 50% inhibition at 10 μM)
A10: inhibition of radioligand binding, human opioid (ORL1) (Human opioid (ORL1)): − (“−” indicates less than 50% inhibition at 10 μM)
A5: inhibition of radioligand binding, human melanocortin (MC5) (Human melanocortin (MC5)): − (“−” indicates less than 50% inhibition at 10 μM)
A6: inhibition of radioligand binding, human melanin-concentrating hormone (MCH1) ([2]; [125I]-S36057): − (“−” indicates less than 50% inhibition at 10 μM)
A1: inhibition of radioligand binding, human δ-opioid (DOP) (Human δ-opioid (DOP)): − (“−” indicates less than 50% inhibition at 10 μM)
A3: inhibition of radioligand binding, human melanocortin (MC3) (Human Melanocortin (MC3)): − (“−” indicates less than 50% inhibition at 10 μM)
A11: inhibition of radioligand binding, mouse urotensin (mUR2) (Mouse urotensin (mUR2)): − (“−” indicates less than 50% inhibition at 10 μM)
A2: inhibition of radioligand binding, human κ-opioid (KOP) (Human κ-Opioid (KOP)): − (“−” indicates less than 50% inhibition at 10 μM)
A4: inhibition of radioligand binding, human melanocortin (MC4) (Human Melanocortin (MC4)): − (“−” indicates less than 50% inhibition at 10 μM)
A7: inhibition of radioligand binding, human μ-opioid (MOP) (Human μ-opioid (MOP)): − (“−” indicates less than 50% inhibition at 10 μM)
A8: inhibition of radioligand binding, human neurokinin (NK1) (Human neurokinin (NK1)): + (“+” indicates greater than 50% inhibition at 10 μM)

COCC1OC(OCc2ccc3ccccc3c2)C(NC(=O)CNC(=N)N)C(OCc2ccc3ccccc3c2)C1O (stereo not drawn) [compound 247]
A9: inhibition of radioligand binding ([1]; FlashPlate): − (“−” indicates less than 50% inhibition at 10 μM)
A10: inhibition of radioligand binding (Human opioid (ORL1); FlashPlate): − (“−” indicates less than 50% inhibition at 10 μM)
A5: inhibition of radioligand binding (Human melanocortin (MC5); FlashPlate): + (“+” indicates greater than 50% inhibition at 10 μM)
A6: inhibition of radioligand binding ([2]; [125I]-S36057, FlashPlate): − (“−” indicates less than 50% inhibition at 10 μM)
A1: inhibition of radioligand binding (Human δ-opioid (DOP); FlashPlate): − (“−” indicates less than 50% inhibition at 10 μM)
A3: inhibition of radioligand binding (Human Melanocortin (MC3); FlashPlate): + (“+” indicates greater than 50% inhibition at 10 μM)
A11: inhibition of radioligand binding (Mouse urotensin (mUR2); FlashPlate): − (“−” indicates less than 50% inhibition at 10 μM)
A2: inhibition of radioligand binding (Human κ-Opioid (KOP); filtration): − (“−” indicates less than 50% inhibition at 10 μM)
A4: inhibition of radioligand binding (Human Melanocortin (MC4); FlashPlate): + (“+” indicates greater than 50% inhibition at 10 μM)
A7: inhibition of radioligand binding (Human μ-opioid (MOP); FlashPlate): − (“−” indicates less than 50% inhibition at 10 μM)
A8: inhibition of radioligand binding (Human neurokinin (NK1); filtration): + (“+” indicates greater than 50% inhibition at 10 μM)
